Assay results reported in patent US7265130B2, “NPY Y5 antagonist” (Shionogi & Co., Ltd., priority 1999, dated 2007).

Columns and labels:
human NPY Y5 receptor [1] = target: T1, human NPY Y5 receptor (Homo sapiens, UniProt Q15761); experiment: cAMP production inhibitory activity in CHO cells; type: cell-based; conditions: against 50 nM NPY inhibition of forskolin stimulated cAMP, CHO cells expressing human NPY Y5 receptor
T1 construct: expressed in transfected cells
T1 sequence (Q15761 1-445): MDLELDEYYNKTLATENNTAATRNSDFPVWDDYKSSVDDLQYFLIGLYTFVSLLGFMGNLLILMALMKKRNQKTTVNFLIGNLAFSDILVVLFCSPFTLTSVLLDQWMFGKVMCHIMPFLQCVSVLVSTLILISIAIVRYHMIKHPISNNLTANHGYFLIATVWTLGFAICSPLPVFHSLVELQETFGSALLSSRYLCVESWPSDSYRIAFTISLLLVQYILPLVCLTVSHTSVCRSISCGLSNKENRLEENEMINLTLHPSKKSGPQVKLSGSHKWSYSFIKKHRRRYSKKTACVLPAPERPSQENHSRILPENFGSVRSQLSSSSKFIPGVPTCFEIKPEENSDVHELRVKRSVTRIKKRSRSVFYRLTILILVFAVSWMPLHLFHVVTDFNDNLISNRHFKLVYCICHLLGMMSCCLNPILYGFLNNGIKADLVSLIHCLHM
Summary of the method: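 Supernatant cAMP quantified by EIA after HCl stop, following 30 min stimulation with 10 μM forskolin and 50 nM NPY. Compound was added 5 min before stimulation to human NPY Y5-expressing CHO cells pretreated 20 min at 37 °C with 2.5 mM isobutylmethylxanthine.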

human NPY Y5 receptor [2] = target: T1, human NPY Y5 receptor; experiment: Affinity for NPY Y5 receptor ([125I] peptide YY binding, CHO cell membranes); conditions: inhibition of specific [125I] peptide YY binding, membranes of CHO cells expressing NPY Y5 receptor
Summary of the method: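 IC50 is inhibition of specific [125I] peptide YY binding (60 pM final; non-specific defined by 200 nM peptide YY), read by gamma counting after filtration. Binding used stably transfected CHO-cell membranes with compound, 2 hours at 25° C, pH 7.4 HEPES-Hanks/0.1% BSA.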

Row | Structure (SMILES) | IC50 (human NPY Y5 receptor [1]) [nM] | IC50 (human NPY Y5 receptor [2]) [nM]
1 | CC(C)(C)S(=O)(=O)NC1CCC(C(=O)Nc2ccc(F)cc2F)CC1 (stereo not drawn) [Ia-135] | 49 | 8.2
2 | CC(C)(C)S(=O)(=O)NC1CCC(C(=O)Nc2cc(F)cc(F)c2)CC1 (stereo not drawn) [Ia-136] | 13 | 1.6
3 | CC(C)(C)S(=O)(=O)NC1CCC(C(=O)Nc2ccc(F)c(F)c2)CC1 (stereo not drawn) [Ia-138] | 28 | 2.2
4 | CC(C)S(=O)(=O)NC1CCC(C(=O)Nc2ccc3c(c2)CCC3)CC1 (stereo not drawn) [Ia-141] | 5.7 | 1
5 | CC(C)(C)S(=O)(=O)Nc1ccc(C(=O)Nc2ccc(-c3ccccc3)cc2)cc1 [Ia-158] | 1.7 | 0.71
6 | CC(C)(C)S(=O)(=O)NC1CCC(C(=O)Nc2ccc(F)c(C(F)(F)F)c2)CC1 (stereo not drawn) [Ia-160] | 140 | 0.76
7 | Cc1ccc(NC(=O)C2CCC(NS(=O)(=O)C(C)(C)C)CC2)cc1F (stereo not drawn) [Ia-161] | 18 | 1.9
8 | CC(C)S(=O)(=O)Nc1ccc(C(=O)Nc2ccc3c(c2)CCC3)cc1 [Ia-163] | 400 | 7
9 | CC(C)(C)S(=O)(=O)NC1CCC(C(=O)Nc2ccc(OC3CCCC3)cc2)CC1 (stereo not drawn) [Ia-164] | 4.7 | 0.38
10 | CC(C)(C)S(=O)(=O)NC1CCC(C(=O)Nc2cccc(S(=O)(=O)NC3CCCCC3)c2)CC1 (stereo not drawn) [Ia-168] | 13 | 0.95
11 | CC(C)(C)S(=O)(=O)NC1CCC(C(=O)Nc2ccc(S(=O)(=O)NC3CCCCC3)cc2)CC1 (stereo not drawn) [Ia-169] | 88 | 1.9
12 | CC(C)(C)S(=O)(=O)NC1CCC(C(=O)Nc2ccc(N3CCCCC3=O)cc2)CC1 (stereo not drawn) [Ia-173] | 140 | 6.9
13 | CC(C)(C)S(=O)(=O)NC1CCC(C(=O)Nc2ccc(OCC3CC3)cc2)CC1 (stereo not drawn) [Ia-174] | 5.4 | 0.35
14 | CC(C)(C)S(=O)(=O)NC1CCC(C(=O)Nc2ccc(OC3CCCCC3)cc2)CC1 (stereo not drawn) [Ia-175] | 9.2 | 0.49
15 | CC(C)(C)S(=O)(=O)NC1CCC(C(=O)Nc2cccc(OC3CCCCC3)c2)CC1 (stereo not drawn) [Ia-176] | 5.1 | 0.63
16 | CC(C)(C)S(=O)(=O)NC1CCC(C(=O)Nc2ccc(-c3ccco3)cc2)CC1 (stereo not drawn) [Ia-177] | 7.5 | 0.49
17 | CC(C)(C)S(=O)(=O)NC1CCC(C(=O)Nc2ccc(-c3ccno3)cc2)CC1 (stereo not drawn) [Ia-179] | 19 | 0.89
18 | CC(C)NS(=O)(=O)c1ccc(NC(=O)C2CCC(NS(=O)(=O)C(C)(C)C)CC2)cc1 (stereo not drawn) [Ia-180] | 11 | 1.9
19 | CC(C)NS(=O)(=O)c1cccc(NC(=O)C2CCC(NS(=O)(=O)C(C)(C)C)CC2)c1 (stereo not drawn) [Ia-181] | 25 | 7.7

Row | Structure (SMILES) | IC50 (human NPY Y5 receptor [1]) [nM] | IC50 (human NPY Y5 receptor [2]) [nM]
20 | CC(C)(C)S(=O)(=O)NC1CCC(C(=O)Nc2cccc(OCC3CC3)c2)CC1 (stereo not drawn) [Ia-182] | 2.1 | 0.24
21 | CC(C)(C)S(=O)(=O)NC1CCC(C(=O)Nc2ccc(N3CCCC3=O)cc2)CC1 (stereo not drawn) [Ia-183] | 7.8 | 1.9
22 | CC(C)(C)S(=O)(=O)NC1CCC(C(=O)Nc2ccc(S(=O)(=O)N3CCCCC3)cc2)CC1 (stereo not drawn) [Ia-185] | 4.4 | 0.94
23 | CC(C)(C)S(=O)(=O)NC1CCC(C(=O)Nc2cccc(S(=O)(=O)N3CCCCC3)c2)CC1 (stereo not drawn) [Ia-186] | 12 | 0.93
24 | CC(C)(C)NC(=O)c1ccc(NC(=O)C2CCC(NS(=O)(=O)C(C)(C)C)CC2)cc1 (stereo not drawn) [Ia-187] | 60 | 1.9
25 | CCC(C)NC(=O)c1ccc(NC(=O)C2CCC(NS(=O)(=O)C(C)(C)C)CC2)cc1 (stereo not drawn) [Ia-188] | 28 | 0.75
26 | CC(C)(C)S(=O)(=O)NC1CCC(C(=O)Nc2cccc(NC(=O)C3CCCCC3)c2)CC1 (stereo not drawn) [Ia-189] | 95 | 3.5
27 | CC(C)(C)S(=O)(=O)NC1CCC(C(=O)Nc2ccc(NC(=O)C3CCCCC3)cc2)CC1 (stereo not drawn) [Ia-190] | 1000 | 0.34
28 | CC(C)NC(=O)c1ccc(NC(=O)c2ccc(NS(=O)(=O)C(C)(C)C)cc2)cc1 [Ia-191] | 220 | 0.49
29 | CC(C)NC(=O)c1cccc(NC(=O)C2CCC(NS(=O)(=O)C(C)C)CC2)c1 (stereo not drawn) [Ia-192] | 200 | 5.9
30 | CC(C)NC(=O)c1ccc(NC(=O)C2CCC(NS(=O)(=O)C(C)C)CC2)cc1 (stereo not drawn) [Ia-193] | 43 | 1.4
31 | CC(C)S(=O)(=O)NC1CCC(C(=O)Nc2ccc(-c3ccco3)cc2)CC1 (stereo not drawn) [Ia-194] | 8.1 | 0.22
32 | CC(C)(C)S(=O)(=O)NC1CCC(C(=O)Nc2ccc(-c3cnco3)cc2)CC1 (stereo not drawn) [Ia-195] | 31 | 1.4
33 | CC(C)S(=O)(=O)NC1CCC(C(=O)Nc2ccc(OCC3CC3)cc2)CC1 (stereo not drawn) [Ia-196] | 1.3 | 0.39
34 | CC(C)S(=O)(=O)NC1CCC(C(=O)Nc2cccc(OCC3CC3)c2)CC1 (stereo not drawn) [Ia-197] | 2.5 | 0.44
35 | CC(C)S(=O)(=O)NC1CCC(C(=O)Nc2ccc(OC3CCCC3)cc2)CC1 (stereo not drawn) [Ia-198] | 2.6 | 0.23
36 | Cc1cc(C(=O)NC(C)C)ccc1NC(=O)C1CCC(NS(=O)(=O)C(C)(C)C)CC1 (stereo not drawn) [Ia-201] | 74 | 3.1
37 | CC(C)(C)S(=O)(=O)NC1CCC(C(=O)Nc2ccc(-c3cccs3)cc2)CC1 (stereo not drawn) [Ia-202] | 3.4 | 0.37
38 | CC(C)(C)S(=O)(=O)NC1CCC(C(=O)Nc2ccc(C3CCCCC3)cc2)CC1 (stereo not drawn) [Ia-203] | 2.6 | 0.2

Row | Structure (SMILES) | IC50 (human NPY Y5 receptor [1]) [nM] | IC50 (human NPY Y5 receptor [2]) [nM]
39 | CC(C)S(=O)(=O)NC1CCC(C(=O)Nc2ccc(-c3ncco3)cc2)CC1 (stereo not drawn) [Ia-204] | 6.3 | 1
40 | CC(C)(C)S(=O)(=O)NC1CCC(C(=O)Nc2ccc(OC3CCOC3)cc2)CC1 (stereo not drawn) [Ia-205] | 99 | 2.4
41 | CC(C)(C)S(=O)(=O)NC1CCC(C(=O)Nc2ccc(OCC3CCCCO3)cc2)CC1 (stereo not drawn) [Ia-206] | 460 | 1.9
42 | CC(C)(C)S(=O)(=O)NC1CCC(C(=O)Nc2cccc(N3CCCS3(=O)=O)c2)CC1 (stereo not drawn) [Ia-207] | 5.9 | 0.55
43 | CC(C)(C)S(=O)(=O)NC1CCC(C(=O)Nc2ccc(N3CCCS3(=O)=O)cc2)CC1 (stereo not drawn) [Ia-208] | 9.7 | 1.2
44 | CC(C)(C)S(=O)(=O)Nc1ccc(C(=O)Nc2ccc(-c3ccco3)cc2)cc1 [Ia-210] | 99 | 2.8
45 | CC(C)(C)S(=O)(=O)Nc1ccc(C(=O)Nc2ccc(-c3ncco3)cc2)cc1 [Ia-211] | 240 | 4.8
46 | CC(C)(C)S(=O)(=O)Nc1ccc(C(=O)Nc2ccc(OC3CCCC3)cc2)cc1 [Ia-212] | 2.6 | 0.52
47 | CC(C)(C)S(=O)(=O)Nc1ccc(C(=O)Nc2ccc(-c3cccs3)cc2)cc1 [Ia-213] | 28 | 0.91
48 | CC(C)(C)S(=O)(=O)NC1CCN(C(=O)Nc2ccc(C(F)(F)F)cc2)CC1 [Ia-219] | 28 | 2.5
49 | CC(C)(C)S(=O)(=O)NC1CCN(C(=O)Nc2ccc(C3CCCCC3)cc2)CC1 [Ia-221] | 1.5 | 0.47
50 | CC(C)S(=O)(=O)NC1CCN(C(=O)Nc2ccc(C(F)(F)F)cc2)CC1 [Ia-222] | 18 | 3.7
51 | CC(C)S(=O)(=O)NC1CCN(C(=O)Nc2ccc(C3CCCCC3)cc2)CC1 [Ia-224] | 1.2 | 0.1
52 | CC(C)(C)S(=O)(=O)NC1CCN(C(=O)Nc2ccc(OC3CCOCC3)cc2)CC1 [Ia-225] | 20 | 3.4
53 | CC(C)S(=O)(=O)NCCCCC(=O)Nc1ccc2c(c1)C(=O)N(c1ccccc1)C2=O [Ia-226] | 21 | 0.37
54 | CC(C)S(=O)(=O)NC1CCN(C(=O)Nc2ccc(OC3CCOCC3)cc2)CC1 [Ia-237] | 15 | 1.1
55 | CC(C)(C)S(=O)(=O)NC1CCC(C(=O)Nc2cccc(C3CCOCC3)c2)CC1 (stereo not drawn) [Ia-246] | 20 | 0.26
56 | CC(C)(C)S(=O)(=O)NC1CCC(C(=O)Nc2ccc(C3(O)CCOCC3)cc2)CC1 (stereo not drawn) [Ia-247] | 31 | 0.79
57 | CC(C)(C)S(=O)(=O)NC1CCC(C(=O)Nc2ccc(C3CCOCC3)cc2)CC1 (stereo not drawn) [Ia-248] | 17 | 0.27
